Results on 13 compounds are retold here after publication PMC10520017, “Discovery of Nedd4 auto-ubiquitination inhibitors” (Scientific Reports, 2023).

Test [1] relates to Nedd4. On the set-up: method as in PMID 27979631. Conditions: cited from earlier work.
Test [2] addresses T1, Nedd4 (Homo sapiens, UniProt P46934).
T1 sequence (P46934 1-900 isoform P46934-4): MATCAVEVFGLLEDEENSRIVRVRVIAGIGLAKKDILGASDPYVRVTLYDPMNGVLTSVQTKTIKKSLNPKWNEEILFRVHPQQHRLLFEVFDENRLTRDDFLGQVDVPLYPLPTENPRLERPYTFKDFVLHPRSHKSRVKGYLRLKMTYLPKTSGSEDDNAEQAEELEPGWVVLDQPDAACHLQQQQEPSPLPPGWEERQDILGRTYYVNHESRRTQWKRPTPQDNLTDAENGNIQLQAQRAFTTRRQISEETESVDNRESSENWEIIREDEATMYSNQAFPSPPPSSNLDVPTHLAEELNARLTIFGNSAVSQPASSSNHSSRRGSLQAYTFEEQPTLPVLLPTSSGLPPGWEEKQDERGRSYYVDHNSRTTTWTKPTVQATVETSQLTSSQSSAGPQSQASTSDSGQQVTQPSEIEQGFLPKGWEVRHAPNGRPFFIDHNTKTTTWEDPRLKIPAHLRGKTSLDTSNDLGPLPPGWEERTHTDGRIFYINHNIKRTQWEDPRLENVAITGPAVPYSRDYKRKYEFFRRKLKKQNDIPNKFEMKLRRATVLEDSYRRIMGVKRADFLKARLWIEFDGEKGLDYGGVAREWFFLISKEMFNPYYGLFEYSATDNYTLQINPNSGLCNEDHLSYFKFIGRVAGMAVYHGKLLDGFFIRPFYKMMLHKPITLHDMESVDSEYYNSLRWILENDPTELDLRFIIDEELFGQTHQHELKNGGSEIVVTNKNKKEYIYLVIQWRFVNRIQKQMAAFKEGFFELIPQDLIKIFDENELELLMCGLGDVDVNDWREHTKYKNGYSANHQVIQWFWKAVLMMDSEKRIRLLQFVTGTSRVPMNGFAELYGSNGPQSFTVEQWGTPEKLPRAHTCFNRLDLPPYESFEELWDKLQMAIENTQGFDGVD
Experimental: (§1) All time-resolved fluorescence resonance energy transfer (TR-FRET) auto-ubiquitination assays were performed in a final volume of 10 µL in PerkinElmer 384-well flat bottom white OptiPlate™ polystyrene microplates (PerkinElmer Cat. No. 6007290). […] A low concentration of NP-40 detergent (0.00063% v/v) was chosen for the Nedd4 auto-ubiquitination assay since this concentration yielded optimal terbium emission at 485 nm after 340 nm excitation (Supplementary Fig. 2). […] Reaction mixes containing all assay components except ATP-MgCl2 were preincubated with either library compounds dissolved in 1% DMSO or DMSO alone at RT for up to 2 h. To initiate the auto-ubiquitination reaction, 2 mM ATP-MgCl2 was added and incubated at 37 °C for 60–90 min. TR-FRET signal was measured in a Synergy 4 microplate reader (BioTek) using a 340/30 nm excitation filter and measuring the emission ratio using 485/20 nm and 528/20 nm emission filters. Fluorescence measurement was performed over a 400 µs window following a 100 µs delay post-excitation (Fig. 1).
(§2) All experiments were performed in triplicate (n = 3), and plotted values represent the average of three replicates with the standard deviation. TR-FRET signal refers to background values subtracted using control wells containing Tb-SA and Ub-FITC. Data were plotted using GraphPad 9.1.2 (GraphPad, La Jolla, CA) and fitted to a four-parameter sigmoidal dose–response curve. Where applicable, the dose–response was normalized and expressed as a percentage of auto-ubiquitination activity relative to the DMSO control.

Test [3] concerns the target T1, Nedd4. The experiment in a line: biochemical.
Experimental: as §1, §2
A further test concerns the target WWP1 (Homo sapiens, UniProt Q9H0M0). Conditions: 200 µM.
A further test addresses WWP2 (Homo sapiens, UniProt O00308). The following applies: 200 µM.
The target in another test is T2, Nedd4 C627A + C867A (Homo sapiens, UniProt P46934, C1046A/C1286A).
T2 construct: full length C182A, C627A, C867A, and C627A + C867A mutants; made in house; host or cells: E. coli BL21 (D3)-BirA
T2 sequence (P46934 1-900 isoform P46934-4 C627A/C867A): T1 sequence (P46934 1-900 isoform P46934-4) with C627A, C867A
The experiment in a line: TR-FRET auto-ubiquitination assay of Nedd4 double mutant C627A + C867A. Conditions: 200 µM, 2 h at RT. The format is biochemical.

The next test concerns the target T3, Nedd4 C627A (Homo sapiens, UniProt P46934, C1046A).
T3 construct: full length C182A, C627A, C867A, and C627A + C867A mutants; made in house; host or cells: E. coli BL21 (D3)-BirA
T3 sequence (P46934 1-900 isoform P46934-4 C627A): T1 sequence (P46934 1-900 isoform P46934-4) with C627A
The test can be described thus: TR-FRET auto-ubiquitination assay of Nedd4 mutant C627A. The format is biochemical. Conditions: 2 h at RT, read-out: retention of uninhibited C627A activity.

In test [4] the target is T1, Nedd4. The experiment in a line: LC–MS/MS covalent adduction and site identification. The class given is binding. More on the design: 30 µg of N-terminal His-tagged and C-terminal biotinylated Nedd4 (residue 1–900); made in house; host or cells: E. coli BL21 (D3)-BirA. The method, then: Samples were run on SDS-PAGE and stained with Coomassie Brilliant Blue R-250 (Thermo Fisher Scientific cat no. 20278). Gels were destained in water until the desired contrast was reached. The Nedd4 bands were cut and stored in 1% acetic acid at 4 °C until use. Samples were submitted to the SPARC Molecular Analysis Centre at the Hospital for Sick Children (Toronto, ON, CA) for LC–MS/MS analysis. Each gel band was cut into 3 pieces and digested with 0.8 µg pepsin, 0.6 µg trypsin and 0.6 µg chymotrypsin separately. The peptides obtained through the proteolytic digest were combined then lyophilized and resuspended in 0.1% formic acid. These samples were then subjected to MS/MS spectroscopy by an EASY-nLC 1200 nano-LC system + Thermo Scientific Orbitrap Fusion Lumos Tribrid mass spectrometer. MS data was analyzed using Scaffold PTM 4.0.1.

In test [5] the target is T1, Nedd4. The test can be described thus: Western blotting for ubiquitination and biotinylated Nedd4. The class given is biochemical. Conditions: 50 and 100 µM, 2 h at RT. Here is the method:
The auto-ubiquitination reactions were initiated with the addition of 2 mM ATP-MgCl2. Another control reaction was performed without the addition of ATP-MgCl2 for comparison (negative control).
For orientation: In western blotting, separated proteins are transferred to a membrane and probed.

Another test concerns the target T4, Nedd4 C867A (Homo sapiens, UniProt P46934, C1286A).
T4 construct: full length C182A, C627A, C867A, and C627A + C867A mutants; made in house; host or cells: E. coli BL21 (D3)-BirA
T4 sequence (P46934 1-900 isoform P46934-4 C867A): T1 sequence (P46934 1-900 isoform P46934-4) with C867A
The experiment in a line: TR-FRET auto-ubiquitination assay of Nedd4 mutant C867A. The format is biochemical. The following applies: 200 µM, 2 h at RT.

[6] abbreviates: 200 µM compound, 3 h incubation.

Positions count from the first letter of the chain named. Several values for one entry are separate records, joined by “and”; a condition that tells them apart may be missing. Identical values can stand only once. Like-named read-outs stand apart in the source and are kept apart here. A value given as a limit tells only on which side of the number the result lay.

As usually defined, the IC50 is the point on the concentration scale where inhibition reaches its midpoint. Usually inhibition stands for the relative decrease from the control value, in per cent.

Sequence of WWP1 (Q9H0M0 349-922): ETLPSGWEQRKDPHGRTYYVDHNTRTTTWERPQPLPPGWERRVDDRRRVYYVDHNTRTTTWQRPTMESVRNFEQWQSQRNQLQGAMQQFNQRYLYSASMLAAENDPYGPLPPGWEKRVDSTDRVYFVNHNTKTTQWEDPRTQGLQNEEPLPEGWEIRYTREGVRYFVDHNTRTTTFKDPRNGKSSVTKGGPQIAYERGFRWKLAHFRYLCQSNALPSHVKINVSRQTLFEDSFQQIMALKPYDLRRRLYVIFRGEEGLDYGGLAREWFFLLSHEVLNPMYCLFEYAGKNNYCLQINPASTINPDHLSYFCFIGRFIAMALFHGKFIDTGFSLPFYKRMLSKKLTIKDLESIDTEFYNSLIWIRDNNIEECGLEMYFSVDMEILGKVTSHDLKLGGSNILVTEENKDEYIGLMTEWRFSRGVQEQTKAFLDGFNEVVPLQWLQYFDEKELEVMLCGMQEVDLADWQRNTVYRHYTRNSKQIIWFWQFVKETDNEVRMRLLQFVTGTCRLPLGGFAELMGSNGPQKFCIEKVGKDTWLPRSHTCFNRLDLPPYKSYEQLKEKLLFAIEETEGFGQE
Sequence of WWP2 (O00308 whole entry): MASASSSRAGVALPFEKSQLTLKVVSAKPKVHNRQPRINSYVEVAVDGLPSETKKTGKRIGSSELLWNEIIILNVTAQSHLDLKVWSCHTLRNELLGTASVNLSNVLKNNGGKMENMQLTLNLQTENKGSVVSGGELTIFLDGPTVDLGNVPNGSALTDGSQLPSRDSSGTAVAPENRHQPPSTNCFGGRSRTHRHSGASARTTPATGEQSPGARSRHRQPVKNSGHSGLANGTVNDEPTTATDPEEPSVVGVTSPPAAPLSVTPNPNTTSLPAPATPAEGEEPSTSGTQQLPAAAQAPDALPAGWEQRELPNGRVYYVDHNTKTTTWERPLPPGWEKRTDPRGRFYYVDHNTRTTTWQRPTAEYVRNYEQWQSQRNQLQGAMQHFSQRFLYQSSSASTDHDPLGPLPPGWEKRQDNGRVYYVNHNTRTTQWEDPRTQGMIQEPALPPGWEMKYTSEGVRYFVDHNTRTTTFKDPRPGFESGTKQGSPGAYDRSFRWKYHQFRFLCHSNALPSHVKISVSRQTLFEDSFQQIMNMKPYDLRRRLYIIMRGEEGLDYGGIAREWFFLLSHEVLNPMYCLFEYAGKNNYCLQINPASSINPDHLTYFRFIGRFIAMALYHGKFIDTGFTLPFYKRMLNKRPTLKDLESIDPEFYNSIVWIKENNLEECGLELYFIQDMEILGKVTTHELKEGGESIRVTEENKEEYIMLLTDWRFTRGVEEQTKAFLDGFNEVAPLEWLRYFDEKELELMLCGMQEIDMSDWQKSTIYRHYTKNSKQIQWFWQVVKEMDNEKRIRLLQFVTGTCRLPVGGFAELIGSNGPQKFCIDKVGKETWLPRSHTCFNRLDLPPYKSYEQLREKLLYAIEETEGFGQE
Experimental for Nedd4 C627A + C867A: (§3) All time-resolved fluorescence resonance energy transfer (TR-FRET) auto-ubiquitination assays were performed in a final volume of 10 µL in PerkinElmer 384-well flat bottom white OptiPlate™ polystyrene microplates (PerkinElmer Cat. No. 6007290). […] A low concentration of NP-40 detergent (0.00063% v/v) was chosen for the Nedd4 auto-ubiquitination assay since this concentration yielded optimal terbium emission at 485 nm after 340 nm excitation (Supplementary Fig. 2). Concentrations of Ub activating (E1) and conjugating (E2) enzymes and fluorophores were selected to provide sufficient TR-FRET signal intensity for compound screening without excessive reagent consumption (Supplementary Fig. 3). Reaction mixes containing all assay components except ATP-MgCl2 were preincubated with either library compounds dissolved in 1% DMSO or DMSO alone at RT for up to 2 h. […] TR-FRET signal was measured in a Synergy 4 microplate reader (BioTek) using a 340/30 nm excitation filter and measuring the emission ratio using 485/20 nm and 528/20 nm emission filters. Fluorescence measurement was performed over a 400 µs window following a 100 µs delay post-excitation (Fig. 1).
(§4) All assays were carried out in triplicate with the data representing the mean with standard deviation. […] Auto-ubiquitination reactions were allowed to proceed for 1 h at 37 °C and then read through the TR-FRET assay described in the methods.
Experimental for Nedd4 C867A: as §3, §4
Experimental for WWP1: (§5) All time-resolved fluorescence resonance energy transfer (TR-FRET) auto-ubiquitination assays were performed in a final volume of 10 µL in PerkinElmer 384-well flat bottom white OptiPlate™ polystyrene microplates (PerkinElmer Cat. No. 6007290). […] Concentrations of Ub activating (E1) and conjugating (E2) enzymes and fluorophores were selected to provide sufficient TR-FRET signal intensity for compound screening without excessive reagent consumption (Supplementary Fig. 3). Reaction mixes containing all assay components except ATP-MgCl2 were preincubated with either library compounds dissolved in 1% DMSO or DMSO alone at RT for up to 2 h. To initiate the auto-ubiquitination reaction, 2 mM ATP-MgCl2 was added and incubated at 37 °C for 60–90 min. TR-FRET signal was measured in a Synergy 4 microplate reader (BioTek) using a 340/30 nm excitation filter and measuring the emission ratio using 485/20 nm and 528/20 nm emission filters. Fluorescence measurement was performed over a 400 µs window following a 100 µs delay post-excitation (Fig. 1). Similarly, TR-FRET assays were used to measure the auto-ubiquitination activity of two other Nedd4 family HECT E3 ligases (WWP1 and WWP2) using alternative optimized buffer and fluorophore concentrations to test Nedd4 inhibitor specificity (Supplementary Table 2).
For selectivity assays, we used C-terminal His-tagged WWP1 and WWP2 bound to Tb-labelled
anti-His-tag antibody and FITC-labelled ubiquitin.
Tb-SA 50 nM AntiHis-Tb 16.5 nM AntiHis-Tb 10 nM
NaCl 150 mM NaCl 0 mM NaCl 0 mM
TCEP 0.1 mM TCEP 0.1 mM TCEP 0.1 mM
DMSO 1 % DMSO 1 % DMSO 1 %
MgCl2 2 mM MgCl2 2 mM MgCl2 2 mM
ATP 2 mM ATP 2 mM ATP 2 mM
Experimental for WWP2: as §5
For selectivity assays, we used C-terminal His-tagged WWP1 and WWP2 bound to Tb-labelled […]

`OCc1cn(Cc2ccccc2)c2ccccc12` [Compound 1-benzyl-I3C, 1-benzyl-I3C]: the IC50 with Nedd4 [1] (measured through an ELISA-based assay of Nedd4 activity) is 12.3 µM.
With `OCc1c[nH]c2ccccc12` [Compound 5, Indole-3-carbinol, reference compound], on Nedd4 [2] (500 µM), the inhibition was determined as 33%. For the same compound, the IC50 in the test on Nedd4 [1] (previously reported) was 284 µM.
For the compound `Cn1cc(C(=O)CCl)c2ccccc21` [Compound 6], the IC50 on Nedd4 [3] is 174 µM and 170 µM.
Still for that read-out and setting: the result for `COC(=O)c1ccc2[nH]cc(C(=O)CCl)c2c1` [Compound 11] reads 96.8 µM and 100 µM.
On to `O=C(CCl)c1c[nH]c2ccncc12` [Compound 13], for which the inhibition on WWP1 was 47% and 72%; at WWP2, 58% and 73%.
As to `Cc1cc(C(=O)CCl)c(C)n1-c1ccccc1` [Compound 20], the IC50 on Nedd4 [3] is 244 µM and 240 µM.
Consider `COCCn1c(C)cc(C(=O)CCl)c1C` [Compound 21], for which the IC50 against Nedd4 [3] was 143 µM and 140 µM.
In turn, `Cc1cc(C(=O)CCl)c(C)[nH]1` [Compound 23] displayed an inhibition against WWP1 of roughly 25%. Also, the IC50 at Nedd4 [3] is < 60 µM and 56 µM.
With `Cn1ccc(C(=O)CCl)c1` [Compound 24], the IC50 against Nedd4 [3] is 116 µM and 115 µM.
At WWP1, `O=C(CCl)c1c[nH]c2ccccc12` [Compound 25] yielded an inhibition of roughly 25%.
Regarding `Cc1cc(C(=O)CCl)c(C)n1CCC(C)C` [Compound 29], on Nedd4 [3], the IC50 is 88 µM and 90 µM.
The same measure, in the same setting: the result for `Cc1cc(C(=O)C(C)Cl)c(C)n1Cc1ccco1` (centres unmarked) [Compound 36] reads 113 µM and 110 µM.
`O=C(CCl)c1ccccn1` [Compound 81]: at Nedd4 [2] (200 µM), the inhibition was greater than 50%. Besides, the “change of C627A + C867A mutant activity on incubation with compound” value at Nedd4 C627A + C867A is “No significant differences”. Moreover, on Nedd4 C627A, the activity at 200 µM came to 30%. The “cysteine adduction sites confirmed by MS/MS” value at Nedd4 [4] (200 µM compound, 3 h at RT) is given as “all three of the confirmed cysteine residues”. Also, on Nedd4 [4] (setting [6]), the “Occurrence Among Observed Peptides, Cysteine Site C182” value is 25/67; the “Occurrence Among Observed Peptides, Cysteine Site C627” value is reported as 8/12; the “Occurrence Among Observed Peptides, Cysteine Site C867” value is listed as 21/50. Moreover, the “Localization Probability of Compound 81 modification on cysteine (Cys627 peptide)” value on Nedd4 [4] (sheet "81 Mod Cys627", per peptide spectrum match, residues 639-657, C11 or C9 of the peptide) is 100% and 72%, 0%, 100% and 100%, 100%. The “effect on Nedd4 auto-ubiquitination by Western blot” value on Nedd4 [5] is on record as “complete loss of auto-ubiquitination”. On Nedd4 C867A, the “change of C867A mutant activity on incubation with compound” value is recorded as “No significant differences”. For the same compound, on Nedd4 [3], the IC50 is 31 µM and < 60 µM.
